The results in this text go back to PMC12631003 (2025).

In assay [1] the test system is pre-let-7a-1 (RNA, miRNA) UUAGGGUCACACCCACCACUGGGAGAUAA
The experiment in a line: microscale thermophoresis. The note with it: Na+ (185 mM NaCl, 8 mM Na2HPO4), no Mg2+; 1 mM EDTA, 0.05% Tween-20; 5 nM RNA. In general terms: In MST a laser heats a spot of the sample, and binding alters the fluorescence response.

Assay [2] deals with miRNA21 (RNA, miRNA) GUUGACUGUUGAAUCUCAUGGCAAC
The experiment in a line: microscale thermophoresis. The following applies: Na+ (185 mM NaCl, 8 mM Na2HPO4), no Mg2+; 1 mM EDTA, 0.05% Tween-20; 5 nM RNA; compounds up to 100-300 µM.

Molecules are shown by their SMILES.

Regarding `N#CC[C@H](C1CCCC1)n1cc(-c2ncnc3[nH]ccc23)cn1`, in assay [1], the K d was 82.4 µM.

Regarding `CN1CCN(c2ccc(C(=O)Nc3n[nH]c4ccc(Cc5cc(F)cc(F)c5)cc34)c(NC3CCOCC3)c2)CC1`, the K d in assay [1] was 5.0 µM. The binding result in assay [2] was “no”.

Consider `Cn1cnc2c(F)c(Nc3ccc(Br)cc3Cl)c(C(=O)NOCCO)cc21`, for which the K d in assay [1] is on record as 217 µM.

In the case of `CCc1nc(C(N)=O)c(Nc2ccc(N3CCC(N4CCN(C)CC4)CC3)c(OC)c2)nc1NC1CCOCC1`, the K d in assay [1] came out at 29.4 µM. Besides, the binding result in assay [2] is on record as “no”.
